Results taken from patent US5565566A (Discovery Therapeutics, Inc., priority 1995, dated 1996).

Key:
A2 adenosine receptors = test: antagonism of adenosine agonists: decrease in contractile tone of guinea pig taenia caecum (A2); conditions: for selectivity for A1 adenosine receptors (functional tissues): atrium (A1) vs taenia caecum (A2); for antagonism of the effects of adenosine agonists in relaxing the taenia caecum: modified Schild plots; for sensitization of the tissue (larger agonist response): taenia caecum, high concentrations of the compound
Experimental: Taenia from the guinea pig caecum were cut into lengths of 1.5-2 cm. The tissues were suspended in a 20 ml organ bath containing de Jalon's solution that was gassed with 95% O2 +5% CO2 and maintained at 31° C. […] The contractile response was measured isotonically. […] The ability of the compounds to antagonize the effects of agonists was analyzed using modified Schild plots.

A2 receptors [1] = target: T1, A2 receptors (Rattus norvegicus, UniProt P30543); test: antagonism of NECA-stimulated adenylate cyclase in rat PC12 membranes (B); assay type: biochemical; conditions: (B) Rat PC12 Membranes; A2 Effects
T1 construct: Rat PC12 Membranes; endogenous in cells; host or cells: PC12

A1 receptors [2] = target: T2, A1 receptors (Rattus norvegicus, UniProt P25099); test: prevention of R-PIA-induced inhibition of adenylate cyclase in rat fat cell membranes (C); assay type: biochemical; parameters: from tissue; conditions: (C) Rat Fat Cell Membranes; A1 Effects; read-out: KB vs PIA INHIBITION (Adenylate Cyclase)
T2 sequence (P25099 1-326): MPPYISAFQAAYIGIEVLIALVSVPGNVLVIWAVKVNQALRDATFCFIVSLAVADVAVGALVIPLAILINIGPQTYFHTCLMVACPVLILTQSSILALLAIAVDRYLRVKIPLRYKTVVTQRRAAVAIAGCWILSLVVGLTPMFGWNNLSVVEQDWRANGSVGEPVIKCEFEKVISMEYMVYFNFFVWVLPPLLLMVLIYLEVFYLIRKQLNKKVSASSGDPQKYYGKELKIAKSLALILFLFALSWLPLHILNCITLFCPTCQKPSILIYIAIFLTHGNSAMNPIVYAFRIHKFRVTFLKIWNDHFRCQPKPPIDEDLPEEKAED
Experimental: (§1) For activity at A1 receptors, compounds were tested as inhibitors of the binding of N^6 -[…]-[3H]-Phenylisopropyladenosine in rat brain membranes and for their ability to prevent R-PIA-induced inhibition of adenylate cyclase in rat fat cell membranes.
(C) Rat Fat Cell Membranes

[3] = target: T3, rat cortical A1 receptors (Rattus norvegicus, UniProt P25099); test: displacement of [3H]-CHA from rat cortical A1 receptors; assay type: binding; conditions: [3H]-CHA; rat cortical A1 receptors; read-out: Rat Cortical Binding Constant Ki
T3 construct: rat cortical membranes were the receptor source; from tissue; host or cells: rat cerebral cortex (male Sprague Dawley) membranes
T3 sequence (P25099 1-326): T2 sequence (P25099 1-326)
Experimental: Varying concentrations of test compounds were incubated with the appropriate radioligand and membrane source for 1 hr at room temperature.
Assays were terminated by filtration over Whatman GF/B filters that had been pre-soaked with 0.1% polyethyleneimine using a 24 port Brandell cell havester. The filters were washed three times with 3 ml of ice cold buffer and transfered to plastic scintillation vials to which 4 ml of Beckman Ready protein scintillation cocktail was added. The tubes were shaken and counted in a Beckman 3801 scintillation counter that converted cpm to dpm.
Data were analyzed by utilizing the Ligand, commercial computer program (Munson and Rodbard, 1980).
Male Sprague Dawley rats were killed by decapitation and the brains removed. The cerebral cortices were homogenized in 50 mm Tris; 2mm MgCl2 (pH 7.4), and centrifuged at 40,000×g for 10 minutes. […] The homogenate was centrifuged, washed once, resuspended to a protein concentration of 5-10 mg/ml and frozen at -70° C. until use.

A2 receptors [4] = target: T4, A2 receptors (Homo sapiens, UniProt P29274); test: antagonism of NECA-stimulated adenylate cyclase in human platelet membranes (A); assay type: biochemical; conditions: for Kb: (A) Human Platelet Membranes, A2 Effects
T4 construct: Human Platelet Membranes; from tissue; host or cells: human platelets (membranes)

A1 adenosine receptors = target: T5, A1 adenosine receptors (Cavia porcellus, UniProt P47745); test: antagonism of adenosine agonists: reduction in force of contraction of guinea pig atrium (A1); conditions: for competitive antagonism at adenosine receptors in the atria / basal force of contraction in the atria: guinea pig atria
T5 construct: The left atria from male guinea pigs were isolated; from tissue; host or cells: guinea pig left atrium
T5 sequence (P47745 1-326): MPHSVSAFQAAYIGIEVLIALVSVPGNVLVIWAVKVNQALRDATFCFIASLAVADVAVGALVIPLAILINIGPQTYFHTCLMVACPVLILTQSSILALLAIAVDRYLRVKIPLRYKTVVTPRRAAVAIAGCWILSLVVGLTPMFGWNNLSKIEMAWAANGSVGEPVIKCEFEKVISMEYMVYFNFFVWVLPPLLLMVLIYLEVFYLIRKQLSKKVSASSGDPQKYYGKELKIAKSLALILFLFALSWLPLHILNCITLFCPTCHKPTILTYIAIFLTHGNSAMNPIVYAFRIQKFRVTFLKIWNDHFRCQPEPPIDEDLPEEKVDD
Experimental: The left atria from male guinea pigs were isolated, suspended between two punctate electrodes, and placed in a 20 ml organ bath that contained Krebs-[…] solution that was continuously gassed with 95% O2 +5% CO2 and maintained at 31° C. The resting tension was one gram. The atria were stimulated electrically at 1 Hz, 1 msec duration pulses at supramaximal voltage. The force of contraction was recorded isometrically. The ability of the compounds to antagonize the effects of agonists was analyzed using modified Schild plots.

A1 receptors [5] = target: T2, A1 receptors; test: inhibition of binding of [3H]-phenylisopropyladenosine in rat brain membranes (D); parameters: Rat Brain Membranes; from tissue; host or cells: rat brain (membranes)
Experimental: as §1
(D) Rat Brain Membranes

adenosine receptor = conditions: cited from earlier work
A1 receptors [6] = target: T2, A1 receptors; test: in vivo test on heart rate / ECG of anesthetized rats; conditions: high doses
Experimental: Rats were anesthetized with urethan and blood pressure was monitored via a carotid cannula. Drug injections were made intravenously through a jugular cannula. Blood pressure, EGC, and heart rate were recorded on a Grass polygraph.

[7] = guinea pig atrium, modified Schild plots

T4 sequence (P29274 whole entry): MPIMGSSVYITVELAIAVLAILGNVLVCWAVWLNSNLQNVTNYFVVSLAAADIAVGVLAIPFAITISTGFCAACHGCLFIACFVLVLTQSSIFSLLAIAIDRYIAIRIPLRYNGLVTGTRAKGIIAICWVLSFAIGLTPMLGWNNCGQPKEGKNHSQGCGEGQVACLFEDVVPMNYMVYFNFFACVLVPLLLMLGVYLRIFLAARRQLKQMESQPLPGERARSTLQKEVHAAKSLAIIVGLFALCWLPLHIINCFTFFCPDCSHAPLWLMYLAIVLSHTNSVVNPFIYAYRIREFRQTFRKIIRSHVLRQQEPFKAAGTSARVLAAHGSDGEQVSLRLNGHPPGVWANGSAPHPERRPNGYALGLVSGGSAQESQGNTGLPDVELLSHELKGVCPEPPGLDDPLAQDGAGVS
T1 sequence (P30543 whole entry): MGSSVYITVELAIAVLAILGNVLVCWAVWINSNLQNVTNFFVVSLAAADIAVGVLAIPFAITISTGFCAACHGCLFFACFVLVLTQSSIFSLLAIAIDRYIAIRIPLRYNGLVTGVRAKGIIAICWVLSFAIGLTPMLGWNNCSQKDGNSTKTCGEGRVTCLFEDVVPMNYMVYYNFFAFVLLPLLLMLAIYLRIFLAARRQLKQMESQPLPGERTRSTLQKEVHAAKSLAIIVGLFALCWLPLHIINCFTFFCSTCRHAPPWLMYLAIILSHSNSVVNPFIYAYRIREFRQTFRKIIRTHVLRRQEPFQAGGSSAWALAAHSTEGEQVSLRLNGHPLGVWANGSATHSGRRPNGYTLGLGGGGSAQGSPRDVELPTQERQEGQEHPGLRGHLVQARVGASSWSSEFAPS

Structure (SMILES) | selectivity for A1 adenosine receptors (functional tissues) (A2 adenosine receptors) | antagonism of the effects of adenosine agonists in relaxing the taenia caecum (A2 adenosine receptors) | sensitization of the tissue (larger agonist response) (A2 adenosine receptors) | Kb (A2 receptors [1]) | Kb (A1 receptors [2]) | Ki [3] | Kb (A2 receptors [4]) | potency relative to 9-methyladenine at A2 receptors (A2 receptors [4]; human platelet assay, vs 9-methyladenine) | competitive antagonism at adenosine receptors in the atria (A1 adenosine receptors) | affinity constant pKB (A1 adenosine receptors; [7]) | potency relative to 9-methyladenine at A1 receptors (A1 receptors [5]; A1 receptors, vs 9-methyladenine) | selectivity among adenosine receptors (adenosine receptor) | basal force of contraction in the atria (A1 adenosine receptors) | Kb (A1 adenosine receptors; guinea pig atrium, modified Schild plots, read-out: affinity constant pKB (converted)) | heart block at high doses (A1 receptors [6]) | Ki (A1 receptors [5]; (D) Rat Brain Membranes, A1 Effects, read-out: Ki vs [^3 H] PI (Binding))
Cn1cnc2c(NC3CCCC3)ncnc21 [compound 0840, N^6 -Cyclopentyl-9-Methyl Adenine] | selective for A1 adenosine receptors | did not competitively antagonize the effects of adenosine agonists in relaxing the taenia caecum | some sensitization of the tissue | 25 µM | 1.3 µM | 0.375 µM | 4.9 µM | 5 fold | competitive antagonists at adenosine receptors in the atria | 6.17 ± 0.11 | at least 100 fold | – | – | – | – | –
Cn1c(=O)c2[nH]c(-c3ccccc3)nc2n(C)c1=O [8-phenyltheophylline (8-PT), 8-phenyltheophylline, reference compound] | – | did antagonize the effects of agonists at low concentrations | Sensitization is also observed | – | – | – | – | – | – | – | – | non-selective adenosine receptor antagonist | – | – | – | –
CCC(Cc1cccs1)Nc1ncnc2c1ncn2C (stereo not shown) [N^6-1-(2-Thienyl)-2-butyl)-9-MA, N^6-1-(2-Thienyl)-2-butyl-9-MA] | – | – | – | – | – | – | – | – | competitive antagonists at adenosine receptors in the atria | – | – | – | increases in basal force of contraction in the atria | 4.37 µM | – | –
Nc1ncnc2c1ncn2[C@@H]1O[C@H](CO)[C@@H](O)[C@H]1O [Adenosine, reference compound] | – | – | – | – | – | – | – | – | – | – | – | – | – | – | causes heart block | –
CCC(CC)Nc1ncnc2c1ncn2C [N^6-3-Pentyl-9-MA, N^6-3-Pentyl-9-Methyladenine] | selective for A1 adenosine receptors | did not competitively antagonize the effects of adenosine agonists in relaxing the taenia caecum | some sensitization of the tissue | 53 µM | 7.6 µM | – | 11 µM | – | competitive antagonists at adenosine receptors in the atria | 5.4 ± 0.14 | – | – | increases in basal force of contraction in the atria | – | – | 3.3 µM
